This is an account of results in article PMC11661381, “Covalent-fragment screening identifies selective inhibitors of multiple Staphylococcus aureus serine hydrolases important for growth and biofilm formation” (Research Square, 2024).

The target of one data set is T1, recombinant FphH (rFphH) (Staphylococcus aureus, UniProt A0A0H2XJL0).
T1 sequence (A0A0H2XJL0 1-246): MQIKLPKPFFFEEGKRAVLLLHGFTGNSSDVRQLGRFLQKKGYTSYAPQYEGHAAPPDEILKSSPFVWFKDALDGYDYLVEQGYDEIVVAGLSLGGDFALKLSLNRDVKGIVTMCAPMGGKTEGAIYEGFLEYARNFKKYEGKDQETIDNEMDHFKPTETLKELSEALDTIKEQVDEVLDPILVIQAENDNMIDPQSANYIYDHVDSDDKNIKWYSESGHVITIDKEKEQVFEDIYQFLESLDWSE
Briefly: biochemical. To be noted: for selectivity in the dose-dependent response assay (in words): three Fphs tested. Here is the method: (§1) Fluorogenic substrate assays were performed as previously described[9],[11],[12]. […] Turnover rates in the linear phase of the reaction (10–20 min) were calculated using GraphPad prism 10.0 software as RFU/min. Rates were normalized by subtracting background hydrolysis rates measured for each substrate in reaction buffer in the absence of protein.
(§2) For the screening, 8 μL of enzyme solution was pipetted into the assay plates containing 50 nL compound and allowed to incubate for one hour at room temperature. […] For four-point dose response plates, 2.5, 10, 25, 50 nL droplets were transferred to get […], 10, 25, 50 μM compound concentrations in the 384 well plates again using an Echo acoustic liquid handler as above. […] Calculations were done with GraphPad Prism 10.0 software. […] IC50 values were derived from the fitted curve.

Data set [1] deals with Fph enzymes in live S. aureus cells (USA300). Put plainly: Competition of FP-alkyne labeling in live S. aureus cells. The data set is classed as cell-based, Staphylococcus aureus. The conditions noted are these: 100 μM compound, live S. aureus cells. Here is the method:
One colony of each of S. aureus wild-type and transposon mutants fphB::Tn, fphE::Tn and fphH::Tn picked from growth on a Tryptic soya agar plate were inoculated in 5 mL of Tryptic soya broth (TSB). The overnight bacterial cultures were spun down at 5,000 g for 10 min and pellet was collected. The pellets were washed twice in 1X PBS buffer and resuspended in the same buffer. Cells were first preincubated with the indicated concentrations of inhibitors for 2hr at 37°C. The cells were washed twice with 1X PBS buffer. The resuspended pellets were incubated with Fluorophosphonate-alkyne (FP-alkyne) for 30 min at 37°C. Cells were washed again twice with 1X PBS buffer and resuspended in with 1X PBS and 0.1% Triton–X and lysed by beat beating at 4°C. Next, lysed cells (20 μL) were mixed with 2.16 μL of freshly prepared click mix (0.5 μL of 50 mM CuSO4 in H2O, 1.16 μL of 100 mM BTTAA in DMSO, and 0.5 μL of N3-Cy5 in DMSO) and 1.16 μL of 300 mM sodium ascorbate solution in H2O and incubated at 37 °C for 30 min. Next step, 20 μL of 4X SDS loading buffer was added in each sample and boiled at 100 °C for 10 min. The processed samples were allowed to cool and analyzed by SDS-PAGE (12%) running at 120 V in an electrophoresis chamber. Cy5 fluorescence was imaged using the Cy5 channel on a Typhoon 9410 Imager (Amersham Biosciences).

A further data set concerns the target T2, recombinant FphE (rFphE) (Staphylococcus aureus, UniProt Q2FDS6).
T2 construct: otherwise full-length FphE (Uniprot ID Q2FDS6) and FphH (A0A0H2XJL0) proteins; His6 (3C-cleavable, pETNKI-his-3C-LIC vector) (N); made in house; E. coli is inferred from the pET28a-type vector, IPTG induction and LB/kanamycin
T2 sequence (Q2FDS6 1-276): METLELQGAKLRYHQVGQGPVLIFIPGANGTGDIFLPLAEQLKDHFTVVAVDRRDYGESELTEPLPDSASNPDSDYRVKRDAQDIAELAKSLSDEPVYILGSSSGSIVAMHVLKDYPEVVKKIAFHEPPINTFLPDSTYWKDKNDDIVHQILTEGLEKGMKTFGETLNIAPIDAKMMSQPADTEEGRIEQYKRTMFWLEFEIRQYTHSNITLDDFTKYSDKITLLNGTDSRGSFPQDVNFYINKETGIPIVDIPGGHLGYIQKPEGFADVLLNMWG
Put plainly: biochemical. The conditions noted are these: from dose response IC50 values. Here is the method: as §1, §2

The test system of data set [2] is Fph enzymes in S. aureus USA300 WT lysates. Briefly: Competition of FP labeling in S. aureus lysates. The data set is classed as binding, Staphylococcus aureus. The conditions noted are these: 120 min preincubation. The method, then:
Figure 3 Biochemical characterization of fluorosulfate-based fragments. […] (d) LC/MS profiles for X13d and X13e in LC/MS buffer or aqueous buffer. (e) Proposed reaction mechanism of X13d or X13e binding to rFphH, Fluorescence SDS-PAGE image of rFphH for direct visualization of labelling by clickable probes X13d and X13e with Cy5-azide. (f) Native mass spectrometry (MS) characterization of 1μM rFphH alone or after 1hr incubation with 10 μM X13d or X13e. […] (h) Competition of FP-Cy5 labeling of S. aureus lysates. […] The indicated Fph transposon mutants (::Tn) lysates are included to highlight the location of the three enzymes in the gel. All data shown are representative of three independent experiments.
Cells were then lysed and click labeled with sulfo-Cy5 azide and analyzed by SDS-PAGE. […] We hypothesized this lack of competition may have been due to the inability to permeate the cell membranes. For bacteria, the permeability is influenced by the polarity of the compound, measured by clogP. Drugs targeting Gram-negative bacteria show higher polarities (clogP = − 0.1) compared to those targeting Gram-positive bacteria (clogP = 2.1)[32],[33]. […] Overall, this electrophile has a unique mechanism of binding with the active site serine of FphH and may be a valuable new electrophile class to target other serine hydrolases.

The target of data set [3] is T3, rFphH (Staphylococcus aureus, UniProt A0A0H2XJL0).
T3 construct: otherwise full-length FphE (Uniprot ID Q2FDS6) and FphH (A0A0H2XJL0) proteins; His6 (3C-cleavable, pETNKI-his-3C-LIC vector) (N); made in house; E. coli is inferred from the pET28a-type vector, IPTG induction and LB/kanamycin
T3 sequence (A0A0H2XJL0 1-246): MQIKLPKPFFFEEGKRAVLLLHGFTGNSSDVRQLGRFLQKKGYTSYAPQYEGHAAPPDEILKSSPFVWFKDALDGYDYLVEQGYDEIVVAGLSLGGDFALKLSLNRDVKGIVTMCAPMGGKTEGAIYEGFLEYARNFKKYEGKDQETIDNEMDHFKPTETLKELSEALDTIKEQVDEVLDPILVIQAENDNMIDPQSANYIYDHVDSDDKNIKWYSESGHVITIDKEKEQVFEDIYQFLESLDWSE
Put plainly: FP-Cy5 active site labeling of recombinant protein, rFphH. The data set is classed as binding. To be noted: 500 nM rFphH. The method, then: For activity-based protein labeling experiments, 500 nM of rFphB, rFphE and rFphH in 1X PBS and 0.1% Triton–X were preincubated with different concentrations of inhibitors or DMSO for 2hr at room temperature, followed by adding 300 nM of fluorophosphonate (FP) alkyne and incubated for 30 min at room temperature. Next, 20 μL of the reaction volume were mixed with 2.16 μL of freshly prepared click mix (0.5 μL of 50 mM CuSO4 in H2O, 1.16 μL of 100 mM BTTAA in DMSO, and 0.5 μL of N3-Cy5 in DMSO) and 1.16 μL of 300 mM sodium ascorbate solution in H2O. Samples were incubated at 37°C for 30 min, boiled in SDS loading buffer and analyzed by SDS–PAGE. Cy5 fluorescence was imaged using the Cy5 channel on a Typhoon 9410 Imager (Amersham Biosciences).

Data set [4] is described as follows: Stability in aqueous assay buffer by LC/MS. The data set is classed as physicochemical. An excerpt: This shift was not observed in the acidic mass spectrometry buffer (0.1% formic acid (FA) in H2O as buffer A, and 0.1% FA in acetonitrile (ACN) as buffer B; SI details). We therefore reasoned that the molecule likely reacts to release the fluoride under neutral pH conditions (Fig. 3c). Given the presence of the amide nitrogen in close proximity to the sulfur (VI) atom we reasoned that it likely produces a saccharine-like structure by a cyclization to release the fluorine atom[31]. This would create a molecule that could then be ring-opened by attack by the active site serine on the sulfur center, resulting in irreversible protein modification. […] We were able to purify the non-cyclized OSF-fragment, X13d under acidic conditions, as well as the cyclized OSF-fragment, X13e. We observed a clear mass difference of 20 Da between the two purified species by LC/MS analysis.

The next data set deals with T4, recombinant FphB (rFphB) (Staphylococcus aureus, UniProt A0A0H2XJG5).
T4 construct: made in house
The format is biochemical. To be noted: enzyme inhibition assay. The method, then:
as §1, §2

A further data set concerns the target T5, rFphE (Staphylococcus aureus, UniProt Q2FDS6).
T5 construct: otherwise full-length FphE (Uniprot ID Q2FDS6) and FphH (A0A0H2XJL0) proteins; His6 (3C-cleavable, pETNKI-his-3C-LIC vector) (N); made in house; E. coli is inferred from the pET28a-type vector, IPTG induction and LB/kanamycin
T5 sequence (Q2FDS6 1-276): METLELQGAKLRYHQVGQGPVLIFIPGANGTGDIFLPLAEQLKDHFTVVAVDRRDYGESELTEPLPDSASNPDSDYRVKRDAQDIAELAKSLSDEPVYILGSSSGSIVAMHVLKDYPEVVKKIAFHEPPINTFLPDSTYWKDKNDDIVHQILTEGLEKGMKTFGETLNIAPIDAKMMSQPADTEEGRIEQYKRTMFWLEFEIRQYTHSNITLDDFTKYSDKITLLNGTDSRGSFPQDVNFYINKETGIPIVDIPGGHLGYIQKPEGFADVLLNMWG
Put plainly: Mass spectrometry of rFphE labeling. The data set is classed as binding.

The target of data set [5] is T3, rFphH. Briefly: Intact protein LC-MS of rFphH with inhibitors. The format is binding. The conditions noted are these: 1 μM rFphH, 10 μM probe, 1hr. The method, then: Next, 10 μL of the labeled sample was injected and analyzed by LC-MS. […] Protein labeling efficiency was quantified by UV. The acquired mass of protein was deconvoluted using the deconvolution software in Agilent Bioanalysis Software package.

The data set “crystal structure” deals with the molecule itself. Put plainly: crystal structure.

As usually defined, the IC50 is the concentration needed to halve the response being measured.

T4 sequence (A0A0H2XJG5 entry or part of it): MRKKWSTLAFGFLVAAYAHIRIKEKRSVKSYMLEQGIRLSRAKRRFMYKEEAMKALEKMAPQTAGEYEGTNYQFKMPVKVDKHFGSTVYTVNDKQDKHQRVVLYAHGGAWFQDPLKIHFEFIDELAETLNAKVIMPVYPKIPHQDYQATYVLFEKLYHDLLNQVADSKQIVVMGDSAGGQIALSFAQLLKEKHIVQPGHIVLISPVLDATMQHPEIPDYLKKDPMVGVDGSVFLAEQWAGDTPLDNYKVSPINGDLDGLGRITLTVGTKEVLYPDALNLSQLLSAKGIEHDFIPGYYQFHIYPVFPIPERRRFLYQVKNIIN

Turning to `CC1(C)OB(c2cnc3c(c2)CC(=O)N3)OC1(C)C` [AF22], the “selectivity in the dose-dependent response assay (in words)” value on recombinant FphH (rFphH) is given as “quite selective for rFphH”.
Turning to `CN1CCCN(C(=O)c2ccc(S(=O)(=O)F)cc2)c2ccccc21` [L17], the concentration for half-maximal inhibition (IC50) on recombinant FphH (rFphH) (IC50 (μM) FphH, 5 nM rFphH, 1 hr preincubation, 0.01–50 μM, N.D. = IC50 could not be determined due to incomplete inhibition at the highest concentration tested) came out at 3 µM.
`Cc1cc(B2OC(C)(C)C(C)(C)O2)ccc1S(N)(=O)=O` [Q41]: at recombinant FphH (rFphH), the “selectivity in the dose-dependent response assay (in words)” value was “quite selective for rFphH”.
For the molecule `COc1cc(OC)cc(B(O)O)c1` [W41], the “competition of FP labeling in live cells (in words)” value in data set [1] was “unable to block FP labeling of any of the Fph enzymes”. At recombinant FphE (rFphE), the “selectivity for rFphE over rFphH” value is recorded as about 100 fold.
For the molecule `Cc1ccc(OS(=O)(=O)F)c(C(=O)Nc2ccncc2)c1` [X13], the “competition of FP labeling in live cells (in words)” value in data set [1] is “Neither of the compounds competed with FP labeling in intact cells”. Besides, the “competition of FP labeling in lysates (in words)” value in data set [2] was “dose-dependently competed with FP labeling of rFphH as well as rFphE at higher concentrations”. For the same molecule, the “competition of FP-Cy5 labeling of rFphH (in words)” value at rFphH [3] is listed as “dose-dependent competition of protein labeling”. Moreover, the “mass shift upon incubation in aqueous buffer” value in [4] (1X Phosphate buffer saline pH 7.5, 60 min, absence of protein) stood at 20 Da. Moreover, the “selectivity (higher potency) for rFphH over rFphE” value on recombinant FphH (rFphH) (from dose response IC50 values) is about 100 fold. Moreover, the “inhibition of rFphB (in words)” value on recombinant FphB (rFphB) is recorded as “no activity against rFphB”. Moreover, the “labeling of rFphE by mass-spectrometry (in words)” value at rFphE was “No labeling”.
As for `O=C(Nc1ccncc1)c1ccccc1OS(=O)(=O)F` [X13a], the “competition of FP labeling in live cells (in words)” value in data set [1] is listed as “Neither of the compounds competed with FP labeling in intact cells”. Moreover, in [2], the “competition of FP labeling in lysates (in words)” value is reported as “dose-dependently competed with FP labeling of rFphH as well as rFphE at higher concentrations”. For the same molecule, the “competition of FP-Cy5 labeling of rFphH (in words)” value on rFphH [3] is “dose-dependent competition of protein labeling”.
`C#Cc1cnccc1NC(=O)c1ccccc1OS(=O)(=O)F` [X13d]: the “conversion in pH 7.5 buffer (in words)” value in data set [4] (pH 7.5 buffer) was “rapidly converted to the cyclic version”. Besides, at rFphH [5], the “mass shift of rFphH (in words)” value is recorded as “produced the expected mass shift”.
As to `C#Cc1cnccc1N1C(=O)c2ccccc2OS1(=O)=O` [X13e], the “mass shift of rFphH (in words)” value at rFphH [5] is “produced the expected mass shift”.

B1: FphE (fluorophosphonate-binding hydrolase E), S. aureus USA300, crystallography construct (enzyme)
chain: GPGMETLELQGAKLRYHQVGQGPVLIFIPGANGTGDIFLPLAEQLKDHFTVVAVDRRDYGESELTEPLPDSASNPDSDYRVKRDAQDIAELAKSLSDEPVYILGSSSGSIVAMHVLKDYPEVVKKIAFHEPPINTFLPDSTYWKDKNDDIVHQILTEGLEKGMKTFGETLNIAPIDAKMMSQPADTEEGRIEQYKRTMFWLEFEIRQYTHSNITLDDFTKYSDKITLLNGTDSRGSFPQDVNFYINKETGIPIVDIPGGHLGYIQKPEGFADVLLNMWG
notes: also called rFphE; source: E. coli expression from pet28a-(pETNKI-his-3C-LIC-kan), purified (Ni-NTA, size exclusion); tag cleaved with 3C protease
With B1, in “crystal structure”, the binding result is “binds”.
